# Laboratory results reported in patent publication US12077503B2, “Substituted cyclic amides and their use as herbicides” (FMC CORPORATION, priority 2015, dated 2024).
# What was measured:
# Format in all cases: in vivo
# [1] = tested on: redroot pigweed (Amaranthus retroflexus); experiment: Test G Pre-Emergence Protocol; settings: Amaranthus retroflexus, pre-emergence, 312 h, evaluated after 13 days, read-out: Pigweed, Redroot damage rating (100=total damage to plant; 0=no damage to plant)
# Method in brief: (§1)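 Test compound in 0.5% Tween 20 acetone/water (50:50) was applied at three rates (15.625, 62.5, 250 g/ha) to soil sown one day earlier. After 13 days plants were scored for injury, where 0 means unaffected and 100 means completely damaged.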
# [2] = tested on: velvetleaf (Abutilon theophrasti); experiment: Test G Pre-Emergence Protocol; settings: Abutilon theophrasti, pre-emergence, 312 h, evaluated after 13 days
# Method in brief: as §1
# [3] = tested on: barnyardgrass (Echinochloa crus-galli); experiment: Test G Pre-Emergence Protocol; settings: Echinochloa crus-galli, pre-emergence, 312 h, evaluated after 13 days
# Method in brief: as §1
# [4] = tested on: giant foxtail (Setaria faberi); experiment: Test G Pre-Emergence Protocol; settings: Setaria faberi, pre-emergence, 312 h, evaluated after 13 days
# Method in brief: as §1
# corn (Zea mays) [5] = experiment: Test G Pre-Emergence Protocol; settings: Zea mays, pre-emergence, 312 h, evaluated after 13 days
# Method in brief: as §1
# [6] = tested on: ivy-leaved morning glory (Ipomoea hederacea); experiment: Test G Pre-Emergence Protocol; settings: Ipomoea, pre-emergence, 312 h, evaluated after 13 days
# Method in brief: as §1
# [7] = tested on: redroot pigweed (Amaranthus retroflexus); experiment: Test G Post-Emergence Protocol; settings: Amaranthus retroflexus, post-emergence, 312 h
# Method in brief: (§2)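 Foliar application was made 8 days after sowing, using an aqueous spray of the active in acetone/water (50:50) with 0.5% Tween 20, at doses of 15.625, 62.5 or 250 g/ha. Injury was assessed 13 days later, where 100 meant the plant was fully damaged.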
# [8] = tested on: velvetleaf (Abutilon theophrasti); experiment: Test G Post-Emergence Protocol; settings: Abutilon theophrasti, post-emergence, 312 h
# Method in brief: as §2
# [9] = tested on: barnyardgrass (Echinochloa crus-galli); experiment: Test G Post-Emergence Protocol; settings: Echinochloa crus-galli, post-emergence, 312 h
# Method in brief: as §2
# [10] = tested on: giant foxtail (Setaria faberi); experiment: Test G Post-Emergence Protocol; settings: Setaria faberi, post-emergence, 312 h
# Method in brief: as §2
# corn (Zea mays) [11] = experiment: Test G Post-Emergence Protocol; settings: Zea mays, post-emergence, 312 h
# Method in brief: as §2
# [12] = tested on: ivy-leaved morning glory (Ipomoea hederacea); experiment: Test G Post-Emergence Protocol; settings: Ipomoea, post-emergence, 312 h
# Method in brief: as §2
smiles,measurement,setting,value
CN1C[C@H](c2ccc(C(F)(F)F)cc2)[C@@H](C(=O)Nc2ccccc2S(C)(=O)=O)C1=O (racemic) [Compound 1459],pest or weed control at 15.625 g/ha,[1]; 15.625 g ai/ha,0%
same,pest or weed control at 250 g/ha,[1]; 250 g ai/ha,60%
same,pest or weed control at 15.625 g/ha,"[2]; 15.625 g ai/ha, read-out: Velvetleaf damage rating (100=total damage to plant; 0=no damage to plant)",0%
same,pest or weed control at 62.5 g/ha,"[2]; 62.5 g ai/ha, 100=total damage to plant, 0=no damage to plant, read-out: plant damage rating, Velvetleaf",0%
same,pest or weed control at 250 g/ha,"[2]; 250 g ai/ha, read-out: Velvetleaf damage rating (100=total damage to plant; 0=no damage to plant)",0%
same,pest or weed control at 15.625 g/ha,"[3]; 15.625 g ai/ha, read-out: Barnyard grass damage rating (100=total damage to plant; 0=no damage to plant)",20%
same,pest or weed control at 62.5 g/ha,"[3]; 62.5 g ai/ha, 100=total damage to plant, 0=no damage to plant, read-out: plant damage rating, Barnyardgrass",60%
same,pest or weed control at 250 g/ha,"[3]; 250 g ai/ha, read-out: Barnyardgrass damage rating (100=total damage to plant; 0=no damage to plant)",60%
same,pest or weed control at 15.625 g/ha,"[4]; 15.625 g ai/ha, read-out: Foxtail, Giant damage rating (100=total damage to plant; 0=no damage to plant)",40%
same,pest or weed control at 62.5 g/ha,"[4]; 62.5 g ai/ha, 100=total damage to plant, 0=no damage to plant, read-out: plant damage rating, Foxtail, Giant",60%
same,pest or weed control at 250 g/ha,"[4]; 250 g ai/ha, read-out: Foxtail, Giant damage rating (100=total damage to plant; 0=no damage to plant)",80%
same,plant injury at 15.625 g/ha,"corn (Zea mays) [5]; 15.625 g ai/ha, read-out: Corn damage rating (100=total damage to plant; 0=no damage to plant)",0%
same,plant injury at 62.5 g/ha,"corn (Zea mays) [5]; 62.5 g ai/ha, 100=total damage to plant, 0=no damage to plant, read-out: plant damage rating, Corn",0%
same,plant injury at 250 g/ha,"corn (Zea mays) [5]; 250 g ai/ha, read-out: Corn damage rating (100=total damage to plant; 0=no damage to plant)",0%
same,pest or weed control at 15.625 g/ha,"[6]; 15.625 g ai/ha, read-out: Morning-glory, Ivy-leaved damage rating (100=total damage to plant; 0=no damage to plant)",0%
same,pest or weed control at 62.5 g/ha,"[6]; 62.5 g ai/ha, 100=total damage to plant, 0=no damage to plant, read-out: plant damage rating, Morningglory, Ivy-leaved",0%
same,pest or weed control at 250 g/ha,"[6]; 250 g ai/ha, read-out: Morningglory, Ivy-leaved damage rating (100=total damage to plant; 0=no damage to plant)",0%
same,pest or weed control at 15.625 g/ha,"[7]; 15.625 g ai/ha, evaluated after 13 days (100=total damage to plant; 0=no damage to plant), read-out: Pigweed, Redroot damage rating",30%
same,pest or weed control at 62.5 g/ha,"[7]; 62.5 g ai/ha, evaluated after 13 days, read-out: Pigweed, Redroot damage rating (100=total damage to plant; 0=no damage to plant)",40%
same,pest or weed control at 250 g/ha,"[7]; 250 g ai/ha, evaluated after 13 days, read-out: damage to plant, Pigweed, Redroot (100=total damage to plant; 0=no damage to plant)",40%
same,pest or weed control at 15.625 g/ha,"[8]; 15.625 g ai/ha, evaluated after 13 days (100=total damage to plant; 0=no damage to plant), read-out: Velvetleaf damage rating",0%
same,pest or weed control at 62.5 g/ha,"[8]; 62.5 g ai/ha, evaluated after 13 days, read-out: Velvetleaf damage rating (100=total damage to plant; 0=no damage to plant)",0%
same,pest or weed control at 250 g/ha,"[8]; 250 g ai/ha, evaluated after 13 days, read-out: damage to plant, Velvetleaf (100=total damage to plant; 0=no damage to plant)",0%
same,pest or weed control at 15.625 g/ha,"[9]; 15.625 g ai/ha, evaluated after 13 days (100=total damage to plant; 0=no damage to plant), read-out: Barnyardgrass damage rating",0%
same,pest or weed control at 62.5 g/ha,"[9]; 62.5 g ai/ha, evaluated after 13 days, read-out: Barnyardgrass damage rating (100=total damage to plant; 0=no damage to plant)",10%
same,pest or weed control at 250 g/ha,"[9]; 250 g ai/ha, evaluated after 13 days, read-out: damage to plant, Barnyardgrass (100=total damage to plant; 0=no damage to plant)",20%
same,pest or weed control at 15.625 g/ha,"[10]; 15.625 g ai/ha, evaluated after 13 days (100=total damage to plant; 0=no damage to plant), read-out: Foxtail, Giant damage rating",10%
same,pest or weed control at 62.5 g/ha,"[10]; 62.5 g ai/ha, evaluated after 13 days, read-out: Foxtail, Giant damage rating (100=total damage to plant; 0=no damage to plant)",60%
same,pest or weed control at 250 g/ha,"[10]; 250 g ai/ha, evaluated after 13 days, read-out: damage to plant, Foxtail, Giant (100=total damage to plant; 0=no damage to plant)",60%
same,plant injury at 15.625 g/ha,"corn (Zea mays) [11]; 15.625 g ai/ha, evaluated after 13 days (100=total damage to plant; 0=no damage to plant), read-out: Corn damage rating",10%
same,plant injury at 62.5 g/ha,"corn (Zea mays) [11]; 62.5 g ai/ha, evaluated after 13 days, read-out: Corn damage rating (100=total damage to plant; 0=no damage to plant)",10%
same,plant injury at 250 g/ha,"corn (Zea mays) [11]; 250 g ai/ha, evaluated after 13 days, read-out: damage to plant, Corn (100=total damage to plant; 0=no damage to plant)",10%
same,pest or weed control at 15.625 g/ha,"[12]; 15.625 g ai/ha, evaluated after 13 days (100=total damage to plant; 0=no damage to plant), read-out: Morningglory, Ivy-leaved damage rating",0%
same,pest or weed control at 62.5 g/ha,"[12]; 62.5 g ai/ha, evaluated after 13 days, read-out: Morningglory, Ivy-leaved damage rating (100=total damage to plant; 0=no damage to plant)",0%
same,pest or weed control at 250 g/ha,"[12]; 250 g ai/ha, evaluated after 13 days, read-out: damage to plant, Morningglory, Ivy-leaved (100=total damage to plant; 0=no damage to plant)",20%
